Measured values reported in paper PMC9032718, “Eltrombopag as an Allosteric Inhibitor of the METTL3-14 Complex Affecting the m^6A Methylation of RNA in Acute Myeloid Leukemia Cells” (Pharmaceuticals, 2022).

How the values were obtained:
[1] = system: MOLM-13 cells; assay: Combinatorial analysis of AML drugs with eltrombopag (EZ-cytox, Synergyfinder); format: cell-based; conditions: Homo sapiens, MOLM-13; for inhibition at 1.5 µM: MOLM-13, eltrombopag alone 1,500 nM; for inhibition at 3 µM: MOLM-13, eltrombopag alone 3,000 nM; for inhibition at 6 µM: MOLM-13, eltrombopag alone 6,000 nM; for inhibition at 12 µM: MOLM-13, eltrombopag alone 12,000 nM
Method: The MOLM-13 cells were seeded in white 96-well clear bottomed plates with 50 μL of medium (5000 cells/well). The plated cells were treated with serially diluted eltrombopag and current AML drugs, including venetoclax, cytarabine, gilteritinib, and sorafenib, to a final volume of 100 μL and incubated for 72 h at 37 °C. After incubation, 10 μL of EZ-cytox kit reagent from the EZ-cytox cell viability assay kit (DaeiLab) was added to each well and then incubated for 3 h at 37 °C. The absorbance of metabolically active cells was measured at a wavelength of 450 nm using a Victor multilabel reader (PerkinElmer). The synergy scores of each combination were quantified by the HAS model, ZIP model, Loewe additivity model, and Bliss independence models using Synergyfinder software. Positive or negative synergy scores obtained through these models represent synergy and antagonism, respectively.

[2] = system: MOLM-13 cells; assay: Anti-proliferative assay (EZ-cytox), MOLM-13; format: cell-based; conditions: Homo sapiens, MOLM-13, 72 h
Method: (§1) The MOLM-13, MOLM-14, HL60, MV4-11, and THP-1 cells were seeded in white 96-well clear bottomed plates with 100 μL of medium (5000 cells/well). The plated cells were treated with serially diluted compounds and incubated for 72 h at 37 °C. After incubation, 10 μL of EZ-cytox kit reagent from the EZ-cytox cell viability assay kit (DaeiLab, Seoul, Korea) was added to each well and then incubated for 3 h at 37 °C. The absorbance of metabolically active cells was measured at a wavelength of 450 nm using a Victor multilabel reader (PerkinElmer). The GI50 values were calculated by nonlinear regression analysis using OriginPro 9.1 software (OriginLab).

[3] = target: T1, SETD2 (Homo sapiens, UniProt Q9BYW2); assay: Methyltransferase selectivity panel (MT HotSpot radioisotope assay), SETD2; format: biochemical; conditions: 10 μM eltrombopag
T1 construct: purchased Reaction Biology (Malvern, PA, USA), contract assay
Method: (§2) The selectivity profile of eltrombopag was investigated by testing the level of inhibition in a methyltransferase panel. The inhibition of 7 […] methyltransferase was tested at Reaction Biology (Malvern, PA, USA) using a gold standard radioisotope-based MT assay (MT HotSpot^TM) with 10 μM of eltrombopag in duplicate.

[4] = system: MOLM-14 cells; assay: Anti-proliferative assay (EZ-cytox), MOLM-14; format: cell-based; conditions: Homo sapiens, MOLM-14, 72 h
Method: as §1

[5] = target: T2, METTL3-14 complex (Homo sapiens, UniProt Q86U44); assay: METTL3-14 enzyme-based bioluminescence assay (screening assay); format: biochemical; conditions: IC50 not affected by SAM 50-1600 nM or RNA 25-800 nM
T2 construct: genes encoding the full-length and MTase domain of human METTL3; METTL3-14 FL: full length of METTL3-14; 10x His (thrombin-cleavable) (cleaved yes); made in house; host or cells: Trichoplusia ni (Hi5) cells co-infected with two baculoviruses (virus made in Sf9)
Method: An enzymatic bioluminescence assay was established to identify the METTL3-14 inhibitor through screening. […] METTL3-14 activity was assessed by measuring the luminescence using a Victor multilabel reader (PerkinElmer, Waltham, MA, USA). The IC50 values were calculated by a nonlinear regression analysis using OriginPro 9.1 software (OriginLab).
To confirm the mechanism of action of eltrombopag in the METTL3-14 complex, 30 nM METTL3-14 and serially diluted eltrombopag were reacted with various concentrations of SAM or RNA substrate and saturating concentrations of the other substrate (3 μM SAM or 2 μM RNA substrate) for 20 min. To evaluate the inhibitory activity in a single form of METTL3 and METTL14, 1 μM of METTL3 and 300 nM of METTL14 were incubated with 1 μM of SAM, 500 nM of RNA substrates, and serially diluted eltrombopag for 5 h. To measure the inhibitory activity in the truncated form of the METTL3-14 complex, 1 μM of the truncated METTL3-14 complex was reacted with 1 μM of SAM, 500 nM of RNA substrates, and serially diluted eltrombopag for 5 h.

[6] = system: MV4-11 cells; assay: Anti-proliferative assay (EZ-cytox), MV4-11; format: cell-based; conditions: Homo sapiens, MV4-11, 72 h
Method: as §1

[7] = target: T3, SMYD3 (Homo sapiens, UniProt Q9H7B4); assay: Methyltransferase selectivity panel (MT HotSpot radioisotope assay), SMYD3; format: biochemical; conditions: 10 μM eltrombopag, SMYD3
T3 construct: purchased Reaction Biology (Malvern, PA, USA), contract assay
T3 sequence (Q9H7B4 1-428): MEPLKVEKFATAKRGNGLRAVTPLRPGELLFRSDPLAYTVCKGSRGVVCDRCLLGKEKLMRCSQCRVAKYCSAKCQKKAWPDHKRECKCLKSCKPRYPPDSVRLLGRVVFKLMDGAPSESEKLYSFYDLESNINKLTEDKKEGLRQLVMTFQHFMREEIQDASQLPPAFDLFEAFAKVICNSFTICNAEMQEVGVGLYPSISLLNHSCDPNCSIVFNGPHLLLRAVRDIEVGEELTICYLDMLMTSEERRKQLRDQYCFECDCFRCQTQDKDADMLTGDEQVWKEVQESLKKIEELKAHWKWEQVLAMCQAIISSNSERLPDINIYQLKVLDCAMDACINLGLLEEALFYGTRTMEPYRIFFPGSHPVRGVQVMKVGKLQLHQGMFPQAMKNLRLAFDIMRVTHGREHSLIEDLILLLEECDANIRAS
Method: as §2

[8] = design: method as in PMID 30305280, PMID 30002802; conditions: cited from earlier work

T2 sequence (Q86U44 whole entry, the tested form may be a part): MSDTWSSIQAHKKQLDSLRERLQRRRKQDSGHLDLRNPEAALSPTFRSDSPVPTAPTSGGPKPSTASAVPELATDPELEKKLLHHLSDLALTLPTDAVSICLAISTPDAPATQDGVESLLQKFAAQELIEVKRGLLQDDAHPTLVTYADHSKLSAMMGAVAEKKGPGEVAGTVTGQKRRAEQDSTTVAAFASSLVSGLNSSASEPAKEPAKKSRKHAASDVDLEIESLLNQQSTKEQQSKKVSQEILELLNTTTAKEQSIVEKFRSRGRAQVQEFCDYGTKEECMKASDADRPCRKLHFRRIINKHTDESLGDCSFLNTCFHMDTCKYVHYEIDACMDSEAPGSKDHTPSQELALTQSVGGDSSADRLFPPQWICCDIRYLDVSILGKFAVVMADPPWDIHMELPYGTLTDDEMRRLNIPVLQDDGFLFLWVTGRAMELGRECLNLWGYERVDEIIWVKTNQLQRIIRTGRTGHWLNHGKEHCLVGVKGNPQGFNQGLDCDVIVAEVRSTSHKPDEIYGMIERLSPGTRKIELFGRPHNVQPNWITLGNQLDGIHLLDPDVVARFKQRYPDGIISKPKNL
T2 sequence (Q9HCE5 whole entry partner, the tested form may be a part): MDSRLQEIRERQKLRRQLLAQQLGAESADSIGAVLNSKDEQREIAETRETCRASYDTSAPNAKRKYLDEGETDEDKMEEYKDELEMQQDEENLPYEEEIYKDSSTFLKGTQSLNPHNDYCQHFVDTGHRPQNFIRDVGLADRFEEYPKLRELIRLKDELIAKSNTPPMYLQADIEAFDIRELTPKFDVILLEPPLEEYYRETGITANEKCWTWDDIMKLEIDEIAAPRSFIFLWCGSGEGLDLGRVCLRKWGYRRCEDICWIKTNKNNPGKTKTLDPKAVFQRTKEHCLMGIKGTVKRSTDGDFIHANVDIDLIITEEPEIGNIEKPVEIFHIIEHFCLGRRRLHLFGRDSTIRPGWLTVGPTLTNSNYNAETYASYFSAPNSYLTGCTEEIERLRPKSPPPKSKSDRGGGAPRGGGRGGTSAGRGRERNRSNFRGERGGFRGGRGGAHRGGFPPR
T1 sequence (Q9BYW2 whole entry): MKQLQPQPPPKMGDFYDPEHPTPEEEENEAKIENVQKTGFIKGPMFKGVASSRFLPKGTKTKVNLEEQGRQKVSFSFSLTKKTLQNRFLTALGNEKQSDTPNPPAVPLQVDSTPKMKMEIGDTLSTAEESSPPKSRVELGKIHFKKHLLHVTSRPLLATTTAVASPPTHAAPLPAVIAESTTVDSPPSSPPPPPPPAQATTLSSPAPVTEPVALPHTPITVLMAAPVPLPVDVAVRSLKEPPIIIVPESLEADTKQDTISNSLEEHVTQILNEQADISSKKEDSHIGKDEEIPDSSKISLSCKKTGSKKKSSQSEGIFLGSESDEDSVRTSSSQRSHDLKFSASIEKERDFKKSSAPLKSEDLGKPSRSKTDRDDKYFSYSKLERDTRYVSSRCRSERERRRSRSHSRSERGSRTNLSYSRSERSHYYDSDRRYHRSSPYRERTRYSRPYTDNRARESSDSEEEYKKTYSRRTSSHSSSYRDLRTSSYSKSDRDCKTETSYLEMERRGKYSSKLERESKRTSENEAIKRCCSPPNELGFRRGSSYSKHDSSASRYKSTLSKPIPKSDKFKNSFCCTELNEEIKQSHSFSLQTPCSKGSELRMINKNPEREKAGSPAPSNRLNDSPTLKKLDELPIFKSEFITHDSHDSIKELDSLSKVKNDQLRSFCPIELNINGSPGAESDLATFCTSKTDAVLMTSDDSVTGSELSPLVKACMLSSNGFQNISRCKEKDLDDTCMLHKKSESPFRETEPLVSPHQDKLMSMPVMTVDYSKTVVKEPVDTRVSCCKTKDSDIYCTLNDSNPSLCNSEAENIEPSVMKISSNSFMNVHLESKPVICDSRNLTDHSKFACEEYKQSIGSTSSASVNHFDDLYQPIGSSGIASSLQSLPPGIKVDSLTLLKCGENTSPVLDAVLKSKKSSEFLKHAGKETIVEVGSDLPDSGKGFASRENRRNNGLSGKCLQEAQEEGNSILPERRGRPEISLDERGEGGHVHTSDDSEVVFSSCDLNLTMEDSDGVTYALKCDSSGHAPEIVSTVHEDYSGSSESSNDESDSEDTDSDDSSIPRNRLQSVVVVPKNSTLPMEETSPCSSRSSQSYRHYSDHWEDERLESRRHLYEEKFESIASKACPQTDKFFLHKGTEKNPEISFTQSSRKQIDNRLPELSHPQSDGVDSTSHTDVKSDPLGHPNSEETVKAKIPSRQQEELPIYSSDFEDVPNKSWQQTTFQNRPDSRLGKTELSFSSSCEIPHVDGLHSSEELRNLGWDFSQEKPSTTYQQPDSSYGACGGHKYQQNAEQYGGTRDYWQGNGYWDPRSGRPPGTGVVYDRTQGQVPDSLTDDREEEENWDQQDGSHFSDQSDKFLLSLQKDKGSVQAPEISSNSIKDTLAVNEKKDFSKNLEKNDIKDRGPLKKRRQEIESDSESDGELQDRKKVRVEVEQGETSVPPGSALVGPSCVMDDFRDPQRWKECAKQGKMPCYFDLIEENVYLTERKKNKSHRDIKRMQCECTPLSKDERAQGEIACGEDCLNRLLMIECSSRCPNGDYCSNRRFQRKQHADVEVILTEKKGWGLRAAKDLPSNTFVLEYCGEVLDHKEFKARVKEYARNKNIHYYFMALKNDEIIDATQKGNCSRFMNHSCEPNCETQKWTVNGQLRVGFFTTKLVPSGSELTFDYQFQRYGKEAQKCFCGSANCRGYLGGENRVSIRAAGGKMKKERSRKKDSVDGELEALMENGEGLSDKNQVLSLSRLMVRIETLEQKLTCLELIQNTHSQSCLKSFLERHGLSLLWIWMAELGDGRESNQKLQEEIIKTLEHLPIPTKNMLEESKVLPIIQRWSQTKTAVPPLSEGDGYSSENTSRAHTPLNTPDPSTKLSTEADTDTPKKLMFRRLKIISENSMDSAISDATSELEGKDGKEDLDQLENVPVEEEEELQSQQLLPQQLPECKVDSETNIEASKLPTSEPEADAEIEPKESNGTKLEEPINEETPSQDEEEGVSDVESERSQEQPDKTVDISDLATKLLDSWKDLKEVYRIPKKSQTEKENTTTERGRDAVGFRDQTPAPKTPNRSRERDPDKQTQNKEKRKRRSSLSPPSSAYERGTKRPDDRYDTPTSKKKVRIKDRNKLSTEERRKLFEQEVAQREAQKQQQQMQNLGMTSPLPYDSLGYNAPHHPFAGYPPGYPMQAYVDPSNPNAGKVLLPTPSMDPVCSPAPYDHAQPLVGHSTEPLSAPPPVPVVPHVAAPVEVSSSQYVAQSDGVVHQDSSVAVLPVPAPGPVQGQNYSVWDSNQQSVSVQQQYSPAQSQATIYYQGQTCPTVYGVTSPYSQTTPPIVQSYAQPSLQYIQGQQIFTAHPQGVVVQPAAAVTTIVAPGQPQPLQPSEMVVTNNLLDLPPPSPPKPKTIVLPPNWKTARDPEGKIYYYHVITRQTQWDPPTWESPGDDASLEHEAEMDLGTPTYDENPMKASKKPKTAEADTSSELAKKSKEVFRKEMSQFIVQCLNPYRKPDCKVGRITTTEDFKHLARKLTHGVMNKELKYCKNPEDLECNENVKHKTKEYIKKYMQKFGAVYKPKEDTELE

For `CC1=NN(c2ccc(C)c(C)c2)C(=O)/C1=N\Nc1cccc(-c2cccc(C(=O)O)c2)c1O` [Eltrombopag], the inhibition at 1.5 µM ([1]; cytarabine matrix (panel C)) was 9.02 ± 5.05%, the inhibition at 1.5 µM ([1]; venetoclax matrix (panel A)) was 13 ± 2.13% and the inhibition at 3 µM ([1]; cytarabine matrix (panel C)) was 24.8 ± 2.76%. It also gave an inhibition at 3 µM ([1]; venetoclax matrix (panel A)) of 30 ± 5.01%, an inhibition at 6 µM ([1]; cytarabine matrix (panel C)) of 61.6 ± 1.03% and an inhibition at 6 µM ([1]; venetoclax matrix (panel A)) of 69.4 ± 2.33%. The inhibition at 12 µM ([1]; cytarabine matrix (panel C)) was 93.83 ± 0.61%, the inhibition at 12 µM ([1]; venetoclax matrix (panel A)) was 94.91 ± 0.86% and the GI50 [2] was 8.28 µM. The remaining activity at 10 µM [3] was 97.3 ± 4.1%, the GI50 [4] was 10.4 ± 0.7 µM and the “mode of enzyme inhibition” value [5] was “noncompetitive inhibitor”. For the same compound, the GI50 [6] was 14.3 ± 0.1 µM, the remaining activity at 10 µM [7] was 98.7 ± 5.7% and the “safety in clinical studies, combination with azacitidine” value ([8]; combination with azacitidine compared with azacitidine alone) was “increased progression to acute myeloid leukemia”. The “safety in clinical studies, monotherapy” value ([8]; monotherapy) was “didn’t show any safety concerns”.
